According to patent US20060141054A1, “Metal coordinated compositions” (priority 2004, published 2006):
Each block holds one compound with its values, some of them ahead of it.

How the values were obtained:
[1] = Log D at pH 7.4 (octanol/water); format: physicochemical
[2] = water, 0.15 m kcl
physchem = settings: water, 0.15 m kcl
[3] = Equilibrium/stability constants of zinc complexes; format: physicochemical; settings: approximated
[4] = Equilibrium/stability constants of magnesium complexes; format: physicochemical; settings: estimated from literature precedents of similar compounds

Compound: N[C@@H](Cc1cc(I)c(Oc2ccc(O)c(I)c2)c(I)c1)C(=O)[O-].N[C@@H](Cc1cc(I)c(Oc2ccc(O)c(I)c2)c(I)c1)C(=O)[O-].[Zn+2] [Bis(triiodothyroninato)zinc]
Log D7.4 [1]: 3.43
pKa (first listed) [2]: 6.66
pKa (second listed) [2]: 6.42

Compound: N[C@@H](Cc1cc(I)c(Oc2ccc(O)c(I)c2)c(I)c1)C(=O)O [Triiodothyronine]
logD ([1]; Method Potentiometric, read-out: Log D7.4): 2.8
pKa (physchem; pKa (first listed)): 8.41
pKa (physchem; pKa (second listed)): 8.07

cumulative binding constant, β2 [3]: 8.5
Compound: N[C@@H](Cc1ccccc1)C(=O)O.[Zn] [phenylalanine-zinc]

log Keq (estimated) [4]: 1.6
Compound: Bis(acycloguanosinato)magnesium
